Assay results as given in ChEMBL document CHEMBL1156232, “Non-classical antifolates. Part 2: synthesis, biological evaluation, and molecular modeling study of some new 2,6-substituted-quinazolin-4-ones” (Bioorg Med Chem, 2010).
Converted amounts (≈) assume the structure as drawn. The source made the active and inactive calls. The calls are words filed in the database; no cut-off is given here.

Assays:
Dihydrofolate reductase [1] = molecular target: T1, Dihydrofolate reductase (Homo sapiens, UniProt P00374)
T1 sequence (P00374 whole entry): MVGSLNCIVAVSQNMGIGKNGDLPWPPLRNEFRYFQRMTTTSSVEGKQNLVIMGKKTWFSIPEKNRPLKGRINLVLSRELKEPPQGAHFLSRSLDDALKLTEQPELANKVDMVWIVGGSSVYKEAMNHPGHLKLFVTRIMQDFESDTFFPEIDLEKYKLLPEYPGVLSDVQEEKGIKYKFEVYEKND
Description: Inhibition of human DHFR after 2 mins

Candida albicans [2] = assay: Antifungal activity against Candida albicans at 200 ug/disk after 48 hrs by disk diffusion method; format: functional, organism-based
[3] = Antitumor activity against human prostate cancer cells after 48 hrs by SRB assay; format: functional; settings: Cancer cell lines
OVCAR-4 = assay: Antitumor activity against human OVCAR4 cells after 48 hrs by SRB assay; format: functional; settings: OVCAR-4, 48 h
[4] = Antitumor activity against human colon cancer cells after 48 hrs by SRB assay; format: functional; settings: Cancer cell lines
Dihydrofolate reductase [5] = molecular target: T2, Dihydrofolate reductase (Bos taurus, UniProt P00376)
T2 sequence (P00376 whole entry): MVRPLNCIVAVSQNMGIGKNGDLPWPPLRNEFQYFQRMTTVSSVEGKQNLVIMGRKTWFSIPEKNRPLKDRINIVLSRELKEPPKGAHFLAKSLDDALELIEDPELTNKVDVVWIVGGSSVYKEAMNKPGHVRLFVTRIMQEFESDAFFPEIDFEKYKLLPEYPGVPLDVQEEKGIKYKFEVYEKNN
Description: Inhibition of bovine DHFR after 2 mins

[6] = Antitumor activity against human melanoma cells after 48 hrs by SRB assay; format: functional; settings: Melanoma cell
[7] = Antitumor activity against human CNS cancer cells after 48 hrs by SRB assay; format: functional; settings: Cancer cell lines
[8] = Antitumor activity against human breast cancer cells after 48 hrs by SRB assay; format: functional; settings: Cancer cell lines
[9] = Antitumor activity against human ovarian cancer cells after 48 hrs by SRB assay; format: functional; settings: Cancer cell lines
[10] = Antitumor activity against human leukemia cells after 48 hrs by SRB assay; format: functional; settings: Leukemia cell
[11] = Antitumor activity against human non small cell lung cancer cells after 48 hrs by SRB assay; format: functional; settings: Cancer cell lines
HT-29 = assay: Antitumor activity against human HT-29 cells after 48 hrs by SRB assay; format: functional; settings: HT-29, 48 h
Candida albicans [12] = assay: Antifungal activity against Candida albicans after 48 hrs by microdilution susceptibility method; format: functional, organism-based
[13] = Antitumor activity against human renal cancer cells after 48 hrs by SRB assay; format: functional; settings: Cancer cell lines
Bacillus subtilis [14] = assay: Antibacterial activity against Bacillus subtilis at 100 ug/disk after 24 hrs by disk diffusion method; format: functional
Bacillus subtilis [15] = assay: Antibacterial activity against Bacillus subtilis after 24 hrs by microdilution susceptibility method; format: functional
Bacillus subtilis [16] = assay: Antibacterial activity against Bacillus subtilis at 200 ug/disk after 24 hrs by disk diffusion method; format: functional; settings: for zone of inhibition at 200 µg/disc: read-out: DIZ
Staphylococcus aureus [17] = assay: Antibacterial activity against Staphylococcus aureus at 100 ug/disk after 24 hrs by disk diffusion method; format: functional
Staphylococcus aureus [18] = assay: Antibacterial activity against Staphylococcus aureus after 24 hrs by microdilution susceptibility method; format: functional
Pseudomonas aeruginosa [19] = assay: Antibacterial activity against Pseudomonas aeruginosa at 200 ug/disk after 24 hrs by disk diffusion method; format: functional
Staphylococcus aureus [20] = assay: Antibacterial activity against Staphylococcus aureus at 200 ug/disk after 24 hrs by disk diffusion method; format: functional
Escherichia coli [21] = assay: Antibacterial activity against Escherichia coli at 200 ug/disk after 24 hrs by disk diffusion method; format: functional; settings: for zone of inhibition at 200 µg/disc: read-out: DIZ
Micrococcus luteus [22] = assay: Antibacterial activity against Micrococcus luteus at 200 ug/disk after 24 hrs by disk diffusion method; format: functional
MDA-MB-468 = assay: Antitumor activity against human MDA-MB-468 cells after 48 hrs by SRB assay; format: functional; settings: MDA-MB-468, 48 h
Pseudomonas aeruginosa [23] = assay: Antibacterial activity against Pseudomonas aeruginosa after 24 hrs by microdilution susceptibility method; format: functional
Escherichia coli [24] = assay: Antibacterial activity against Escherichia coli after 24 hrs by microdilution susceptibility method; format: functional
Micrococcus luteus [25] = assay: Antibacterial activity against Micrococcus luteus after 24 hrs by microdilution susceptibility method; format: functional

O=C(/C=C/c1ccccc1)Nc1ccc2nc(SC/C=C/c3ccccc3)n(Cc3ccccc3)c(=O)c2c1
IC50 (Dihydrofolate reductase [1]): 0.5 µM
Activity (Candida albicans [2]): inactive
GI50 [3]: > 100 µM
TGI [3]: > 100 µM
GI50 (OVCAR-4): 0.4 µM
GI50 [4]: 1.9 µM
TGI [4]: > 100 µM
IC50 (Dihydrofolate reductase [5]): 0.9 µM
GI50 [6]: 2.2 µM
TGI [6]: 86.9 µM
GI50 [7]: 3 µM
TGI [7]: 37 µM
GI50 [8]: 2.5 µM
TGI [8]: 68.6 µM
GI50 [9]: 3.3 µM
TGI [9]: > 100 µM
GI50 [10]: > 100 µM
TGI [10]: > 100 µM
GI50 [11]: 2.2 µM
TGI [11]: 76.4 µM
GI50 (HT-29): 0.6 µM
Activity (Candida albicans [12]): inactive
GI50 [13]: 2.6 µM
TGI [13]: 68 µM

CC(=O)NS(=O)(=O)c1ccc(N)cc1 [SULFACETAMIDE]
zone of inhibition at 100 µg/disc (Bacillus subtilis [14]; read-out: DIZ): 25 mm
IC50 (Dihydrofolate reductase [1]): 18 µM
MIC (Bacillus subtilis [15]): 2 µg/mL (≈ 9.34 µM)
zone of inhibition at 200 µg/disc (Bacillus subtilis [16]): 25 mm
IC50 (Dihydrofolate reductase [5]): 22 µM
zone of inhibition at 100 µg/disc (Staphylococcus aureus [17]; read-out: DIZ): 28 mm
MIC (Staphylococcus aureus [18]): 1 µg/mL (≈ 4.67 µM)

CSc1nc2ccc(NC(=O)/C=C/c3ccccc3)cc2c(=O)n1Cc1ccccc1
diameter of the inhibition zone (DIZ) (Pseudomonas aeruginosa [19]): inactive
IC50 (Dihydrofolate reductase [1]): 1 µM
diameter of the inhibition zone (DIZ) (Staphylococcus aureus [20]): inactive
Activity (Candida albicans [2]): inactive
GI50 [3]: 1.6 µM
TGI [3]: > 100 µM
diameter of the inhibition zone (DIZ) (Bacillus subtilis [16]): inactive
diameter of the inhibition zone (DIZ) (Escherichia coli [21]): inactive
GI50 [4]: 34.5 µM
TGI [4]: > 100 µM
diameter of the inhibition zone (DIZ) (Micrococcus luteus [22]): inactive
IC50 (Dihydrofolate reductase [5]): 0.6 µM
GI50 [6]: 2.4 µM
TGI [6]: 26.9 µM
GI50 [7]: 1.9 µM
TGI [7]: 68.4 µM
GI50 (MDA-MB-468): 2.2 µM
GI50 [8]: 3 µM
TGI [8]: > 100 µM
GI50 [9]: 1.1 µM
TGI [9]: > 100 µM
GI50 [10]: 51.6 µM
TGI [10]: > 100 µM
GI50 [11]: 1.7 µM
TGI [11]: 80.9 µM
Activity (Candida albicans [12]): inactive
GI50 [13]: 2.9 µM
TGI [13]: > 100 µM

O=c1c2cc([N+](=O)[O-])ccc2nc(SC/C=C/c2ccccc2)n1Cc1ccccc1
MIC (Pseudomonas aeruginosa [23]): 16 µg/mL (≈ 37.3 µM)
zone of inhibition at 200 µg/disc (Pseudomonas aeruginosa [19]; read-out: DIZ): 17 mm
IC50 (Dihydrofolate reductase [1]): 3 µM
diameter of the inhibition zone (DIZ) (Staphylococcus aureus [20]): inactive
Activity (Candida albicans [2]): inactive
diameter of the inhibition zone (DIZ) (Bacillus subtilis [16]): inactive
zone of inhibition at 200 µg/disc (Escherichia coli [21]): 21 mm
diameter of the inhibition zone (DIZ) (Micrococcus luteus [22]): inactive
IC50 (Dihydrofolate reductase [5]): 5 µM
Activity (Candida albicans [12]): inactive

GENTAMICIN
inhibition zone (IZ) (Bacillus subtilis [14]): 19 mm
inhibition zone (IZ) (Bacillus subtilis [16]): 19 mm
inhibition zone (IZ) (Staphylococcus aureus [17]): 21 mm

C=CCSc1nc2ccc(NC/C=C/c3ccccc3)cc2c(=O)n1Cc1ccccc1
diameter of the inhibition zone (DIZ) (Pseudomonas aeruginosa [19]): inactive
IC50 (Dihydrofolate reductase [1]): 3 µM
MIC (Bacillus subtilis [15]): 4 µg/mL (≈ 9.1 µM)
zone of inhibition at 200 µg/disc (Staphylococcus aureus [20]; read-out: DIZ): 19 mm
Activity (Candida albicans [2]): inactive
zone of inhibition at 200 µg/disc (Bacillus subtilis [16]): 20 mm
zone of inhibition at 200 µg/disc (Escherichia coli [21]): 18 mm
zone of inhibition at 200 µg/disc (Micrococcus luteus [22]; Micrococcus luteus, 24 h, read-out: DIZ): 16 mm
IC50 (Dihydrofolate reductase [5]): 5 µM
MIC (Escherichia coli [24]): 8 µg/mL (≈ 18.2 µM)
Activity (Candida albicans [12]): inactive
MIC (Staphylococcus aureus [18]): 8 µg/mL (≈ 18.2 µM)
MIC (Micrococcus luteus [25]): 16 µg/mL (≈ 36.4 µM)
